Literature values as cited in patent US20130296440A1 (CHROMADEX INC., priority 2012, published 2013).
Read-outs that look alike come from different tables or passages of the source.

Key:
[1] = for bioavailability: in vivo; for half life t1/2: in blood
5-LOX = target: T1, 5-LOX (Homo sapiens, UniProt P09917); conditions: cultured cells
T1 construct: endogenous in cells
T1 sequence (P09917 1-674): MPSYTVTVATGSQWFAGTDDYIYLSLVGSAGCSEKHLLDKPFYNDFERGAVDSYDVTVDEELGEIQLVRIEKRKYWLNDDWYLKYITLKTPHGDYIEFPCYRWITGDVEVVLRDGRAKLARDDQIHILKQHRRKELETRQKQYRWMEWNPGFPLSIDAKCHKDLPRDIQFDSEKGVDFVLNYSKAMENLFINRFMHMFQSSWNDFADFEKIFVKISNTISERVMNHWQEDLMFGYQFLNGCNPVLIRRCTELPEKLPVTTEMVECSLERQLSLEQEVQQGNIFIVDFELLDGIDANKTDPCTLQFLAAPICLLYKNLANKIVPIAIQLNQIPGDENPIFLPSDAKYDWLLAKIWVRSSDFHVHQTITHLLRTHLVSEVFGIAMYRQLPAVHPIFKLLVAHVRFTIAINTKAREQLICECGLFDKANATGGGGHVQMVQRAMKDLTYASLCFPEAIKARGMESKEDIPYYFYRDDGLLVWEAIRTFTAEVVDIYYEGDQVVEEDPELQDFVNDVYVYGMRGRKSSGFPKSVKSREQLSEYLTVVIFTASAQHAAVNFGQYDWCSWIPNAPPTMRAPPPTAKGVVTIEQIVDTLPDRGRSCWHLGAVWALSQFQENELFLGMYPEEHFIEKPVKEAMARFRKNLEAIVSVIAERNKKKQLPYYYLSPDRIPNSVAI

COX-2 = conditions: cultured cells
PLA2 = conditions: cultured cells
CYP2E1 = CYP2E1 (Homo sapiens, UniProt P05181)
rat smooth muscle cells = conditions: in vitro
PPAR-alpha = target: T2, PPAR-alpha (Rattus norvegicus, UniProt P37230); conditions: for PPAR-alpha activation: luciferase reporter
T2 construct: Using a luciferase reporter gene construct containing the peroxisome proliferator response element promoter region; endogenous in cells; host or cells: H4IIEC3 rat liver cells
T2 sequence (P37230 1-468): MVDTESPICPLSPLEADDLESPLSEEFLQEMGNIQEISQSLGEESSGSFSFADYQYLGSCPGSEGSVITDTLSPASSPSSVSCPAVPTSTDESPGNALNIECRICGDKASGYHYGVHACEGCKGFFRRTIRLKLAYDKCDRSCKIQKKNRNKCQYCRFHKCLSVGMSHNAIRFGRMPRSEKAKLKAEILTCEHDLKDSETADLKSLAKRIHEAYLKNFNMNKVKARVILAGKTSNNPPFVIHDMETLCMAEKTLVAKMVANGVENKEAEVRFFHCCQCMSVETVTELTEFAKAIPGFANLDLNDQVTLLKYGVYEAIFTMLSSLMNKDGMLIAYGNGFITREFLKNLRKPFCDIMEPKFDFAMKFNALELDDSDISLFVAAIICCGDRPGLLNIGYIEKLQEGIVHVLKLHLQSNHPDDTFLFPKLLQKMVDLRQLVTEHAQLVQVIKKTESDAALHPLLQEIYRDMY

[2] = mice; 28-day; 160 pound human equivalent doses of approximately 125 mg/day, 1.25 g/day and 12.5 g/day
CYP1B1 = target: T3, CYP1B1 (Homo sapiens, UniProt Q16678); conditions: human recombinant
T3 sequence (Q16678 1-543): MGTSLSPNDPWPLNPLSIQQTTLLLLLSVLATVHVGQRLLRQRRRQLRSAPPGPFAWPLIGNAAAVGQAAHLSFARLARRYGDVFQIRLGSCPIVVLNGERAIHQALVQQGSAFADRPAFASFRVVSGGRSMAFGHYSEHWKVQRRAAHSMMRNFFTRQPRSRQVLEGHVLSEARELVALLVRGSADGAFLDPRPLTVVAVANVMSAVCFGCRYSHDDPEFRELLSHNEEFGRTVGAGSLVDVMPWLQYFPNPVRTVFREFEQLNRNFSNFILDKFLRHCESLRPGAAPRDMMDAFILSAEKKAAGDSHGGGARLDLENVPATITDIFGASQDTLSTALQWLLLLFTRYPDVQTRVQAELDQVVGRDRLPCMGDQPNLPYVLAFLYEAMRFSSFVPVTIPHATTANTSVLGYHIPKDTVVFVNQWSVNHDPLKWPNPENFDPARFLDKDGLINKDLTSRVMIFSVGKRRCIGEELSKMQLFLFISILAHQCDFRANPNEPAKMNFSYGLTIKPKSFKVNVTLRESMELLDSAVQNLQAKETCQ

CYP1A1 = target: T4, CYP1A1 (Homo sapiens, UniProt P04798); conditions: human recombinant
T4 sequence (P04798 1-512): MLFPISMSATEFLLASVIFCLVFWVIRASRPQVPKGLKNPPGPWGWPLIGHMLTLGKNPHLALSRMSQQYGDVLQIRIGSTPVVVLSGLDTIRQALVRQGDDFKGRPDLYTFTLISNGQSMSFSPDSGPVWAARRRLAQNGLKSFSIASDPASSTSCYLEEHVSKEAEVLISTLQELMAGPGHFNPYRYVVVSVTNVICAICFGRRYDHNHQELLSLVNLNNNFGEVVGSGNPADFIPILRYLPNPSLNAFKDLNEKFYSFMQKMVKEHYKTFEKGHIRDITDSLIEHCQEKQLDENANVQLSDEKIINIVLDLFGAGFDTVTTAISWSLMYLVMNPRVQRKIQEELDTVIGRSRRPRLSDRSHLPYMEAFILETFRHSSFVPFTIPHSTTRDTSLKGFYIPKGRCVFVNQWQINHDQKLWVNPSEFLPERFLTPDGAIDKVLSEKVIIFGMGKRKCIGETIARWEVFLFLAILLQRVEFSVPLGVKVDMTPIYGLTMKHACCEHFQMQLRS

H4IIEC3 rat liver cells = conditions: 100 μM
[3] = 100 μM, H4IIEC3 rat liver cells

CYP2E1, sequence (P05181 whole entry, species assumed): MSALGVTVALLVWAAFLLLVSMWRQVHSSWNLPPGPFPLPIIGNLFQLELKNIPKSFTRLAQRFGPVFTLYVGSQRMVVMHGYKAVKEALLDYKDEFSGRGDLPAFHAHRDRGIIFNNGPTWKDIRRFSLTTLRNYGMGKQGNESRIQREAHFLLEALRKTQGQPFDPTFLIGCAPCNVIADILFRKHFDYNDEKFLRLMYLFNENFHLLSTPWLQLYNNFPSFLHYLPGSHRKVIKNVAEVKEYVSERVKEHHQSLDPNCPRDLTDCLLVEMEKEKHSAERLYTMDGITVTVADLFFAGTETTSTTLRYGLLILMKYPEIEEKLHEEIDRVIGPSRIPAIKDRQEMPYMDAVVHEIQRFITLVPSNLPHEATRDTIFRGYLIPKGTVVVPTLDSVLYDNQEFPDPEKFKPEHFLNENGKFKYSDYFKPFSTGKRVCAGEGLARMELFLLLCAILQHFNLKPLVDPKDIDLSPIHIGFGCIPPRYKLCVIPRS

Row | Structure (SMILES) | bioavailability [1] | 5-LOX activity (5-LOX) | COX-2 activity (COX-2) | PLA2 activity (PLA2) | water solubility | inhibition of CYP2E1 (CYP2E1) | proliferation of rat smooth muscle cells (rat smooth muscle cells) | PPAR-alpha activation relative to 100 μM of ciprofibrate (PPAR-alpha; [3]) | PPAR-alpha activation (PPAR-alpha; [3]) | PPAR-alpha activation (PPAR-alpha; 300 μM, H4IIEC3 rat liver cells) | PPAR-alpha activation within a group of similar stilbenes (PPAR-alpha; in a manner similar to ciprofibrate (Rimando 2005)) | half life t1/2 [1] | local or systemic toxicity [2] | inhibition of CYP1B1 isozyme (CYP1B1) | inhibition of CYP1A1 isozyme (CYP1A1) | toxicity to cells (H4IIEC3 rat liver cells)
1 | COc1cc(/C=C/C(=O)CC(=O)/C=C/c2ccc(O)c(OC)c2)ccc1O [curcumin, (1E,6E)-1,7-Bis(4-hydroxy-3-methoxyphenyl)-1,6-heptadiene-3,5-dione] | poor bioavailability | inhibit | inhibit | inhibit | minimally water soluble |  |  |  |  |  |  |  |  |  |  | 
2 | COc1cc(/C=C/c2ccc(O)cc2)cc(OC)c1 [pterostilbene, trans-3,5-dimethoxy-4′-hydroxystilbene] | orally bioavailable |  |  |  |  | not | inhibit | ~2 fold | 8 fold over the control | 14 fold over the control | activated PPAR-alpha | 74 to 105 min | no local or systemic toxicity | inhibit | inhibit | 
3 | Oc1ccc(C=Cc2cc(O)cc(O)c2)cc1 [resveratrol, reference compound] | poor bioavailability |  |  |  |  |  |  |  |  |  |  | 10 to 14 min |  |  |  | toxic to cells
